According to PubChem BioAssay (NCI):
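Five compound concentrations were applied to cells in 96-well plates for 48 hours; endpoints were derived by simple linear interpolation of the resulting dose-response curve. GI50 is the concentration that inhibits growth by half. TGI marks complete inhibition of growth.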 Where a SMILES comes first, the peptide text is derived from it. [ ]: non-standard residue; d: D form. The star is where a group is joined. NMeF = CN[CH](Cc1ccccc1)C(=O)O; NMeV = CN[CH](C(=O)O)C(C)C; Boc = CC(C)(C)OC(=O)*

Legend:
Experiment in all cases: NCI anticancer screen, dose series, 48 h
OVCAR-4 ovarian = tested on: OVCAR-4 ovarian
SNB-19 CNS = tested on: SNB-19 CNS
HCT-116 colon = tested on: HCT-116 colon
LOX IMVI melanoma = tested on: LOX IMVI melanoma
SK-MEL-5 melanoma = tested on: SK-MEL-5 melanoma
SN12C renal = tested on: SN12C renal
HT29 colon = tested on: HT29 colon
SF-295 CNS = tested on: SF-295 CNS
M14 melanoma = tested on: M14 melanoma
SK-MEL-2 melanoma = tested on: SK-MEL-2 melanoma

| SMILES | GI50 (OVCAR-4 ovarian) [µM] | TGI (OVCAR-4 ovarian) [µM] | GI50 (SNB-19 CNS) [µM] | TGI (SNB-19 CNS) [µM] | GI50 (HCT-116 colon) [µM] | TGI (HCT-116 colon) [µM] | GI50 (LOX IMVI melanoma) [µM] | TGI (LOX IMVI melanoma) [µM] | GI50 (SK-MEL-5 melanoma) [µM] | TGI (SK-MEL-5 melanoma) [µM] | GI50 (SN12C renal) [µM] | TGI (SN12C renal) [µM] | GI50 (HT29 colon) [µM] | GI50 (SF-295 CNS) [µM] | TGI (SF-295 CNS) [µM] | GI50 (M14 melanoma) [µM] | TGI (M14 melanoma) [µM] | TGI (HT29 colon) [µM] | TGI (SK-MEL-2 melanoma) [µM] | GI50 (SK-MEL-2 melanoma) [µM] |
| --- | --- | --- | --- | --- | --- | --- | --- | --- | --- | --- | --- | --- | --- | --- | --- | --- | --- | --- | --- | --- |
| COc1ccc(Nc2c3ccccc3nc3occc23)cc1 | 16.9 | > 100 | 2.87 | > 48.5 | 1.54 | > 32.3 | 6.14 | 59.9 | 1.32 | 13.4 | 2.45 | 23.4 | 1.49 | 0.533 | 8.09 | 2.14 | > 43.1 |  |  |  |
| CCCN1CCC(=O)N(CCC(F)(F)C(F)(F)C(F)(F)C(F)(F)C(F)(F)C(F)(F)F)C1=S |  | > 100 |  | > 100 |  | > 100 |  |  |  | > 100 |  | > 100 |  |  | > 100 |  | > 100 | > 100 |  |  |
| c1ccc(CNn2nnc3ccccc32)cc1 |  | > 100 |  | > 100 |  |  |  | > 100 |  | > 100 |  | > 100 |  |  | > 100 |  | > 100 | > 100 | > 100 |  |
| Cn1c2c(c3ccccc31)CC1c3c(c4ccccc4n3C)CC21 (centres undefined) |  | > 100 |  | > 100 |  |  |  | > 100 |  | > 100 |  | > 100 |  |  | > 100 |  | > 100 | > 100 |  |  |
| Cc1ccc(C2=C(c3ccccc3)C(Br)(c3ccc(C)cc3)C(c3ccccc3)=C2c2ccc(C)cc2)cc1 |  | > 100 |  | > 100 |  | > 100 |  | > 100 |  | > 100 |  | > 100 |  |  | > 100 |  | > 100 |  | > 100 |  |
| CC(C)C(Nc1c2ccccc2nc2ccccc12)C(=O)O (centres undefined) |  | 85.3 |  | > 100 |  | > 100 |  | > 100 |  |  |  | > 100 |  |  | > 100 |  | > 100 | > 100 | > 100 |  |
| Cc1cc(Cl)ccc1N=C1NC(=O)C(CC(=O)Nc2ccc([N+](=O)[O-])cc2[N+](=O)[O-])S1 (centres undefined) |  | 56.3 |  | 73.2 |  |  |  | > 100 |  | 31.1 |  | 90.7 |  |  | 59.5 |  | 59.8 | > 100 | 46.1 |  |
| O=C1CCN2C(=O)CCN12 |  | > 100 |  | > 100 |  | > 100 |  |  |  |  |  | > 100 |  |  | > 100 |  | > 100 | > 100 | > 100 |  |
| NCCCCN(CCCN)/[N+]([O-])=N\O |  | > 100 |  | > 100 |  | > 100 |  |  |  | > 100 |  | > 100 |  |  | > 100 |  | > 100 | > 100 | > 100 |  |
| CC1CC[C@]2(C(=O)O)CCC3(C)C(=CC(=O)C4[C@@]5(C)CCC(=O)C(C)(C)C5CC[C@]43C)[C@@H]2[C@H]1C (some centres undefined) |  | > 100 |  | > 100 |  | 43 |  | 42.8 |  | > 100 |  | > 100 |  |  | > 100 |  | > 100 | > 100 |  |  |
| CC(C)C(NC(=O)OC(C)(C)C)C(=O)N(C)C(Cc1ccccc1)C(=O)N(C)C(C(=O)O)C(C)C (stereo not drawn) (Boc-Val-[NMeF]-[NMeV]-OH; configuration not given here) |  |  |  | > 100 |  | > 100 |  | > 100 |  | > 100 |  | > 100 |  |  | > 100 |  | > 100 | > 100 |  |  |
| Cc1cccc(NC(=O)/C(=N\NC(C)(C)C)C2NC(=S)NC2=O)c1C (centres undefined) |  | > 100 |  | > 100 |  | > 100 |  |  |  | > 100 |  |  |  |  | > 100 |  | > 100 |  | > 100 |  |
| COc1ccc(/C=C/c2ccnc3ccccc23)c(OC)c1 |  | > 10 |  | > 10 |  | > 10 |  | > 10 |  | > 10 |  | > 10 |  |  | > 10 |  | > 10 |  | > 10 |  |
| C[C@@]12CC=C3c4nc(Nc5cccc(O)c5)sc4CC[C@]3(C)[C@H]1CC[C@]1(C)C(=O)CC[C@@H]21 | 2.76 | > 100 | 3.88 | 55.7 |  |  | 1.67 | 3.15 | 5.7 | > 100 |  |  | 1.96 | 2.49 | 7.92 | 2.97 | > 100 | 6.43 | 9.99 | 2.86 |
| COc1cc(/C=C/c2cc(/C=C/c3ccc(O)c(OC)c3)n(C(=O)Nc3ccc(F)c(Cl)c3)n2)ccc1O | 0.721 | 5.47 | 0.514 | 2.1 |  |  | 0.0792 | 1.85 | 0.243 | 1.37 |  |  | 1.31 | 0.544 | 2.6 | 0.114 | 1.59 | 4.26 |  |  |
| CCCCC(O)(c1ccc(Cl)cc1)C(CN1CCOCC1)c1ccc(Cl)cc1 (centres undefined) | 13.6 | 29 | 15.3 | 36.6 | 5.23 | 20.3 | 14.4 | 28.3 | 13.8 | 28.7 | 12.6 | 28.5 | 4.14 | 14.4 | 30.7 | 13.8 | 33.4 | 18.2 |  |  |
| C[C@@H]1CC(=O)C2CCCC1C2=O (some centres undefined) |  | > 100 |  | > 100 |  | > 100 |  | > 100 |  | > 100 |  | > 100 |  |  | > 100 |  | > 100 | > 100 |  |  |
| Cc1ccn2c(c1)nc1nc3ccccc3nc12 |  | > 100 |  | > 100 |  |  |  | > 100 |  | > 100 |  |  |  |  | > 100 |  | > 100 | > 100 | > 100 |  |
| O=C(N/N=C/c1ccccc1)c1c(-c2cccnc2)cnc2ccccc12 |  | > 100 |  | > 100 |  | > 100 |  |  |  | > 100 |  | > 100 |  |  | > 100 |  | > 100 | > 100 | > 100 |  |
| COc1ccc(C(=O)C(C(=O)CCC(=O)Nc2cccc(Cl)c2)c2ccc(OC)cc2)cc1 (centres undefined) |  | > 100 |  | > 100 |  | > 100 |  |  |  | > 100 |  | > 100 |  |  | > 100 |  | > 100 | > 100 | > 100 |  |
| COc1ccccc1CCc1cc(OC)c(OC)c(OC)c1 |  | > 100 |  | > 100 |  | > 100 |  | > 100 |  | 42.7 |  | > 100 |  |  | > 100 |  | > 100 | > 100 |  |  |
| Clc1nc(Cl)c(Cl)c(-c2ccccc2)n1 |  | 20.6 |  | 33.3 |  |  |  | 5.59 |  | 11.8 |  | 53.9 |  |  | 17.1 |  | 3.72 |  | 51.7 |  |
